Reference: US8703790B2, “Bis [O-(14-benzoylaconine-8-yl)] esters” (priority 2008, dated 2014)

Assays:
female Swiss mouse = assay: Acute systemic toxicity, preliminary test, intravenous; format: in vivo; conditions: for death of the animal, time after the test item administration: 1 female Swiss mouse
Protocol: The study has been performed to assess the acute systemic toxicity of SDD in the mouse preliminary test.
The SDD was administered, by intravenous route: • in a first step to 1 female Swiss mouse at the single dose of 95 mg/kg b.w., • in a second step to 1 female Swiss mouse at the single dose of 60 mg/kg b.w., • in a third step to 1 female Swiss mouse at the single dose of 55 mg/kg b.w., and • in a fourth step to a group of 2 female Swiss mice at the single dose of 50 mg/kg b.w.

MCF-7 = assay: Cell cycle arrest, propidium iodide flow cytometry, MCF-7; format: cell-based, human
Protocol: 10^6 Cells of A549, HCT-15 and MCF-7 cell lines have been seeded in Petri dishes with RPMI-1640 medium. 24 h later, SDD has been dissolved in water at a concentration of 20 μM and was directly added to the culture medium. Contact was maintained for 72 h. Then, cells have been detached by trypsinization, collected and rinsed by PBS and counted on hemocytometer. Cells were centrifuged for 5 min at 1500 rpm, then resuspended in a defined volume of PBS to obtain 2.5×10^6 cell/mL. 100 μL of cell suspension was digested to nuclei by trypsin for 10 min. Then, a solution containing trypsin inhibitor and RNAse was added to cell suspension and left for 10 min. Finally, cells were stained by propidium iodide and were analysed by flow-cytometry apparatus. Distribution of cells among the different phases of the cycle was determined by the procedure disclosed in: A detergent-trypsin method for preparation of nuclei for flow cytometric DNA analysis. Vindelov, L.; Christensen, I.; Nissen, N.; Cytometry (1983), 3, 323-327.
• G0G1: cell in the phase of GOG1 • G2M: cells in the phase of G2M • S: cells in the phase of DNA synthesis • Sub G1: apoptotic cells • SUP G2M: diploidic cells

[1] = 50 mg/kg b.w. iv, 1 hour after administration
[2] = MCF-7, SDD 20 μM, 72 h, percentage of total cell population

## CCN1C[C@]2(COC)[C@H](O)C[C@H](OC)[C@]34C1[C@H]([C@H](OC)[C@H]23)[C@]1(OC(=O)CCCCCCC(=O)O[C@]23[C@H]5[C@@H](OC(=O)c6ccccc6)[C@](O)(C[C@H]5[C@@]56C7[C@@H]2[C@H](OC)[C@@H]5[C@](COC)(CN7CC)[C@H](O)C[C@@H]6OC)[C@@H](OC)[C@@H]3O)[C@H]2[C@@H](OC(=O)c3ccccc3)[C@](O)(C[C@H]24)[C@@H](OC)[C@@H]1O [SDD, bis[O-(14-benzoylaconine-8-yl)]-suberate]
Female Swiss mouse; [1]
  decrease of the righting reflex (animals affected): 1/2
  decrease of the spontaneous activity (animals affected): 2/2
Female Swiss mouse; 50 mg/kg b.w. iv, first day to fourteenth day
  local finding at the tails: oedema at the level of the tails
Female Swiss mouse; 50 mg/kg b.w. single dose iv, 2 female Swiss mice
  mortality: No mortality
Female Swiss mouse; 50 mg/kg iv, end of the study
  macroscopical examination: did not reveal any treatment-related changes
Female Swiss mouse; 55 mg/kg b.w. single dose iv
  death of the animal, time after the test item administration: 24 h
Female Swiss mouse; 60 mg/kg b.w. single dose iv
  death of the animal, time after the test item administration: 3 h
Female Swiss mouse; 95 mg/kg b.w. single dose iv
  death of the animal, time after the test item administration: immediately
Female Swiss mouse; preliminary test, throughout the study
  body weight evolution: remained normal
MCF-7; MCF-7, 20 μM
  accumulation of cells in the G2M and S phases: moderate accumulation
MCF-7; [2]
  ALL %: 100%
  G0G1 %: 58.73%
  G2M %: 16.96%
  S %: 21.44%
  SUP G2M % (diploidic cells): 1.72%
  SubG1 % (apoptotic cells): 2.05%
MCF-7; MCF-7, SDD concentration 5 times higher than IC50
  cell distribution in the cycle: not altered
MCF-7; MCF-7, SDD, survival cells
  Percentage of survival cells, G0G1 %: 60.46%
  Percentage of survival cells, G2M %: 17.46%
  Percentage of survival cells, S %: 22.08%
